How the values were obtained:
wtRSV in HEp-2 cells = assay: Time-of-addition assay (RT-qPCR); format: cell-based, Human respiratory syncytial virus; conditions: wtRSV MOI 5, HEp-2, added at −1 to 14 h, RT-qPCR at 24 h post infection
Description: The time-of-addition assay was performed as follows according to our previous work and literature[25]^,[27]. HEp-2 cells were plated in 96 well plates at 1.5 × 10^4 cells per well in 100 µL culture medium and incubated for 24 h (37 °C, 5% CO2). Then, HEp-2 cells were infected with wtRSV at a multiplication of infection (MOI) of 5 for 2 h (37 °C, 5% CO2). The cells were washed with PBS and the media containing drugs and compounds of 4–49 C, 1-HB-63, RSV-604, GS-5806 and Ribavirin at 1 mM, 200 μM, 10 μM, 1 mM and 100 μM, respectively, were added at −1, 0, 2, 4, 6, 8, 10, 12 and 14 h post infection. After the treated cells were further cultured and collected at 24 h post infection, the total RNA was isolated from the HEp-2 cells using TRIzol reagent (Thermo Fisher Scientific, Waltham, MA, USA) and reverse transcribed with GoScript Reverse Transcriptase kit (Promega, Madison, WI, USA). Then, RT-qPCR was performed as described previously.
Figure 2. Investigation on the underlying mechanism 4–49 C and 1-HB-63 inhibiting wtRSV replication. (A) Time-of-addition analyses of 4-49C and 1-HB-63 replication. The HEp-2 cells were infected with wtRSV at a multiplication of infection (MOI) of 5 for 2 h (37 °C, 5% CO2). The cells were washed with PBS and the media containing drug (4-49C, 1-HB-63, RSV-604, GS-5806 and Ribavirin at 1 mM, 200 μM, 10 μM, 1 mM and 100 μM, respectively.) were added at −1, 0, 2, 4, 6, 8, 10, 12 and 14 h separately and incubated till 24 h post infection. Then, the cells were harvested and lysed for RNA extraction and RT-qPCR assay. The results were a representative of three independent experiments, and shown as means ± standard and expressed as % negative control, although in many cases the bars for the standard deviation were obscured by the symbols given the small margin of values. (B) RSV adsorption analyses. […] After 24 h, we cotransfected RSV minigenome plasmid of pBR322B-RSV-Gluc with four auxiliary plasmids into BHK/T7 cells and detected the expression of Gluc in the supernatant. […]

RSV-Luc [1] = assay: In vivo mouse imaging, intraperitoneal injection; design: species or system BALB/c mice; conditions: i.p. 10, 30, 90 mg/kg once a day, days 1-5; except 4–49 C 10 and 90 mg/kg groups on the second day
Description: (§1) Female BALB/c mice of 6-8 weeks were purchased from Charles River Laboratories, Beijing, China and randomly divided into different groups with six mice in each group. All animal experiments were performed in compliance with protocols approved by the Institutional Animal Care and Use Committees of Tsinghua University (No. 17-DZJ1). The compounds (DMSO and ribavirin of 90 mg/kg was used as negative and positive control, respectively) with three different dose groups of 10, 30 and 90 mg/kg were administered to mice by intraperitoneal (i.p.) injection or oral route (anaesthesia with 2% halothane) at zero day and 1 h prior to the mice infected with 50 μL RSV-Luc (1 × 10^6 PFU), and then once a day for 5 consecutive days post RSV-Luc infection. For the in vivo mouse imaging, 50 μL PBS containing D-Luciferin Potassium Salt (75 mg/kg) was administered to BALB/c mice via nasal drip at days 1, 2, 3, 4 and 5 since RSV-Luc infection, and 5 min later, the whole-body images of BALB/c mice were acquired using an IVIS Lumina II in vivo imaging system (PE, Waltham, MA, USA). And the signal intensity was quantified as the total flux (photons/seconds) using Living Image software (PE).
Female BALB/c mice of 6–8 weeks were randomly divided into different groups with 6 mice in each group. […]

[2] = test system: RSV adsorption to HEp-2 cells; assay: RSV adsorption analyses (RT-qPCR); format: cell-based, Human respiratory syncytial virus; conditions: RSV 5 MOI, 1 h at 4 °C
Description: (§2) Figure 2. Investigation on the underlying mechanism 4–49 C and 1-HB-63 inhibiting wtRSV replication. (A) Time-of-addition analyses of 4-49C and 1-HB-63 replication. The HEp-2 cells were infected with wtRSV at a multiplication of infection (MOI) of 5 for 2 h (37 °C, 5% CO2). The cells were washed with PBS and the media containing drug (4-49C, 1-HB-63, RSV-604, GS-5806 and Ribavirin at 1 mM, 200 μM, 10 μM, 1 mM and 100 μM, respectively.) were added at −1, 0, 2, 4, 6, 8, 10, 12 and 14 h separately and incubated till 24 h post infection. Then, the cells were harvested and lysed for RNA extraction and RT-qPCR assay. The results were a representative of three independent experiments, and shown as means ± standard and expressed as % negative control, although in many cases the bars for the standard deviation were obscured by the symbols given the small margin of values. (B) RSV adsorption analyses. After HEp-2 cells seeded into 24 well plates for 24 h, the cold media containing RSV (5 MOI) and compounds of 4–49C, 1-HB-63 and P13 at 1 mM, 200 μM and 100 μM, respectively, was added and incubated for 1 h at 4 °C. Then, the total RNA was isolated and RT-qPCR was performed. (C) RSV minigenome assay. After 24 h, we cotransfected RSV minigenome plasmid of pBR322B-RSV-Gluc with four auxiliary plasmids into BHK/T7 cells and detected the expression of Gluc in the supernatant. […]

RSV-Luc [3] = assay: In vivo mouse imaging, oral route (intragastric); design: species or system BALB/c mice; conditions: intragastric 30 and 90 mg/kg, gavage twice a day
Description: as §1, with “and then once a day for 5 consecutive days post RSV-Luc infection.” left out
In order to further make clear whether the anti-RSV activity of 4–49 C and 1-HB-63 is dependent on the administration route or not, these two compounds were given intragastrically (Figure 5(A)). […]

RSV-Luc [4] = assay: Determination of RSV titre from lung tissues (RT-qPCR); format: in vivo, BALB/c mice; conditions: i.p. 10, 30, 90 mg/kg, day 5 post-infection
Description: Following the experiment of the in vivo mouse imaging mentioned above, the mice were sacrificed. The lung tissues were collected, weighed, quickly frozen under liquid nitrogen and ground with a tissue homogeniser. Then the total RNA was extracted by Trizol from 100 µL homogenates. The viral RNA sample (1 µL) was mixed with the SYBR Green supermix (10 µL), plasmid pMD-18T-N (1 µL, copy number from 1 × 10^7 copies/μL to 1 × 10^5 copies/μL), the upstream and downstream primers, respectively (10 µM, 1 µL) and water (1 µL). Reactions were performed in SLAN-96P Real-Time PCR System (Shanghai Hongshi Medical Technology) as follows: 42 °C for 60 min (for reverse transcription), 95 °C for 1.5 min, 95 °C for 15 s and 60 °C for 1 min, for 40 cycles. The reaction data were analysed by determining the threshold cycle (Ct).
Female BALB/c mice of 6–8 weeks were randomly divided into different groups with 6 mice in each group. All animal experiments were performed in compliance with protocols approved by the Institutional Animal Care and Use Committees of Tsinghua University (No. 17-DZJ1). At day 0, three different doses of 4–49 C and 1-HB-63 (10 mg/kg, 30 mg/kg, 90 mg/kg) were administered to mice by intraperitoneal (i.p.) injection, respectively, with DMSO and ribavirin of 90 mg/kg separately used as negative and positive control. […]

[5] = test system: RSV minigenome (pBR322B-RSV-Gluc) in BHK-T7 cells; assay: RSV minigenome assay (Gluc expression); format: cell-based, Human respiratory syncytial virus; conditions: BHK-T7, 24 h, vs DMSO
Description: BHK-T7 cells were seeded into 24 well plates at a density of 2 × 10^4 cells/well and incubated for 24 h. Then the RSV minigenome plasmid encoding […] (pBR322B-RSV-Gluc) was mixed with the helper plasmids (pCITE-N, pCITE-P, pCITE-L and pCITE-M2-1) in an Eppendorf tube containing 250 μL Opti-MEM. Meanwhile, the transfection reagent of Lipofectamine 2000 (Invitrogen, CA, USA) was diluted in another tube containing 250 μL Opti-MEM and incubated 5 min at room temperature. Then, the plasmids were mixed with the transfection reagent and incubated at room temperature for 30 min. After that, the BHK-T7 culture media were replaced with the DNA-lipo-optiMEM mixture and incubated for 4 ∼ 6 h (37 °C, 5% CO2). Then the DNA-lipo-optiMEM mixture was replaced with media containing the compounds (4–49 C at 1 mM and 1-HB-63 at 200 μM) and further incubated for 24 h (37 °C, 5% CO2). Finally, after the supernatant of the BHK-T7 cells was transferred into 96 well plate, the Gluc activity was determined by using LUMI star (BMG ABTECH, Ortenberg, Germany) following the manufacturer’s instructions after adding the chromogenic substrate of Gaussia Luciferase Flex Assay Kit (NEB, Ipswich, USA). The results were recorded by photography and/or evaluated with OPTIMA software (BMG LABTECH). The resultant signal strength was quantified as relative light unit (RLU).
as §2

[6] = Pharmacokinetic study in rat; format: in vivo, Sprague − Dawley (SD) rats; conditions: SD rat
Description: Six male Sprague − Dawley (SD) rats, randomly divided into two groups of 3 each, were treated with 4–49 C predissolved in 5% DMSO, 5% Solutol and 90% Saline by intravenous injection (iv, 5 mg/kg) and in 5% DMSO and 95% (0.5%MC) by intragastric administration (ig, 10 mg/kg), respectively. Blood samples (100 μL) were collected into K2-EDTA tubes by retro‐orbital bleeding under anaesthesia using isoflurane at 0.033, 0.083, 0.25, 0.5, 1, 2, 4, 7 and 24 h after dosing. And then plasma samples were obtained by centrifuging at 5000 rpm for 10 min at 4 °C and stored at −80 °C until analysis using HPLC–MS/MS.
To investigate the pharmacokinetic parameters in vivo, 4–49 C was selected for the pharmacokinetic experiments in SD rat model. The SD rats were divided into two groups (n = 3) and treated by iv at 5 mg/kg dose and by ig at 10 mg/kg dose, respectively. Plasma samples were collected up to 24 h postdosing and the concentration of 4–49 C was measured by using HPLC-MS/MS.

[7] = male, Sprague-Dawley, iv, 5 mg/kg, plasma, n = 3, Mean ± SD
[8] = positive controls, concentration not given

O=C(C[S+]([O-])c1c[nH]c2ccccc12)Nc1ccccc1Br (stereo not shown) [1-HB-63]
time points of addition at which virus replication is inhibited (wtRSV in HEp-2 cells; compound at 200 μM): significantly inhibited virus replication when added at the time points of −1, 0, 2 and 4 h
fluorescence signals (RSV-Luc replication in lungs) compared with DMSO-treated group (RSV-Luc [1]): did not display significant differences
inhibition of RSV replication by preventing virus adsorption ([2]; 1-HB-63 at 200 μM): neither of 4-49 C and 1-HB-63 inhibited RSV replication by preventing virus adsorption
fluorescence signals (RSV-Luc replication) compared with DMSO negative control group (RSV-Luc [3]): did not exhibit significant differences
virus titres in lung tissues compared with DMSO (RSV-Luc [4]): no significant differences
inhibition of expression of Gluc gene ([5]; 1-HB-63 at 200 μM): sharply contrast

CCOc1ccccc1NC(=O)CSc1c[nH]c2ccc(OC)cc12 [4–49 C]
concentration in plasma samples after ig administration ([6]; ig, 10 mg/kg, up to 24 h, HPLC-MS/MS (data not shown)): no 4–49 C detected in plasma samples
MRTIV ([6]; iv, 5 mg/kg, plasma, n = 3, Mean ± SD): 7.86 ± 0 min
AUC(0-inf) [6, 7]: 70 ± 17 ng·h/mL
AUC(0-t) [6, 7]: 69.3 ± 17 ng·h/mL
Cmax [6, 7]: 454 ± 111 ng/mL
half-life [6, 7]: 10 ± 18 min
k el [6, 7]: 0.00119 s⁻¹
time points of addition at which virus replication is inhibited (wtRSV in HEp-2 cells; compound at 1 mM): significantly inhibited virus replication when added at the time points of −1, 0 and 2 h
fluorescence signals (RSV-Luc replication in lungs) compared with DMSO-treated group (RSV-Luc [1]): did not display significant differences
inhibition of RSV replication by preventing virus adsorption ([2]; 4-49C at 1 mM): neither of 4-49 C and 1-HB-63 inhibited RSV replication by preventing virus adsorption
fluorescence signals (RSV-Luc replication) compared with DMSO negative control group (RSV-Luc [3]): did not exhibit significant differences
virus titres in lung tissues compared with DMSO (RSV-Luc [4]): no significant differences
inhibition of expression of Gluc gene ([5]; 4–49 C at 1 mM): could not be inhibited

Cc1cn2nc([C@@H]3CCCCN3C(=O)c3cc(Cl)ccc3NS(C)(=O)=O)cc2nc1N1CC[C@H](N)C1 [GS-5806, reference compound]
time points of addition at which virus replication is inhibited (wtRSV in HEp-2 cells; compound at 1 mM): inhibition activity only when added up to 0 and 2 h
inhibition of expression of Gluc gene [5, 8]: could not be inhibited

NC(=O)c1ncn([C@@H]2O[C@H](CO)[C@@H](O)[C@H]2O)n1 [ribavirin, Ribavirin, reference compound]
inhibition of expression of Gluc gene [5, 8]: sharply contrast
